Patent publication US20240301319A1, “PERFUMING COMPOSITIONS” (FIRMNICH SA, priority 2017, published 2024)

What was measured:
[1] = Odor threshold and odor value of perfuming compounds (Tables 4 to 10)
[2] = Volatility of perfuming compounds (Tables 4 to 10), with top/middle/bottom note type; type: physicochemical
Outline: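 Volatility is expressed in μg/l in air. Top notes are 70,000 to 100 μg/l, middle notes 99 to 50 μg/l, and bottom notes 49 to 0.1 μg/l. Compounds are grouped by olfactive family: watery, green, fruity, citrus, sweet, gourmand and woody.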

[3] = Table 7, citrus note, equals volatility divided by odor threshold
[4] = perfuming compounds having a green note
[5] = Table 6, perfuming compounds having a fruity note
[6] = Table 6, perfuming compounds having a fruity note, note type by volatility
[7] = Table 7, citrus note, top, middle or bottom note
[8] = note type (Top/Middle/Bottom) by volatility, perfuming compounds having a green note
[9] = Table 10, perfuming compounds having a woody note, note type by volatility
[10] = Table 8, perfuming compounds having a sweet note
[11] = Table 8, perfuming compounds having a sweet note, note type by volatility
[12] = Table 4, watery note, equals volatility divided by odor threshold
[13] = Table 4, watery note, top, middle or bottom note
[14] = Table 9, perfuming compounds having a gourmand note, note type by volatility

In the case of CCC/C=C/C=O [(2E)-2-HEXENAL], the “Odor Threshold (μg/l air)” value ([1]; Table 7, citrus note) is reported as 2.53E−03 μg/l air, the “Odor Value” [1, 3] is reported as 1.33E+07 and the “Odor Threshold (μg/l air)” value [1, 4] is reported as 2.53E−03 μg/l air. For the same compound, the Volatility [2, 5] was 33708.26 μg/l air, the Type [2, 6] was “TOP (perfuming compounds having a volatility ranging from 70,000 to 100 μg/l in air are referred to as “top notes”)” and the “Volatility (μg/l air)” value ([2]; Table 7, citrus note) was 33708.26 μg/l air. The Type [2, 7] was “Top”, the Type [2, 8] was “Top” and the “Volatility (μg/l air)” value [2, 4] was 33708.26 μg/l air.
In the case of CCCCCCOC(=O)C(C)C [hexyl 2-methylpropanoate], the “Odor Threshold (μg/l air)” value [1, 4] is reported as 7.15E−01 μg/l air, the Volatility [2, 5] is reported as 1661.18 μg/l air and the Type [2, 6] is reported as “TOP (perfuming compounds having a volatility ranging from 70,000 to 100 μg/l in air are referred to as “top notes”)”. The Type [2, 8] was “Top” and the “Volatility (μg/l air)” value [2, 4] was 1661.18 μg/l air.
In the case of CC(=O)OC1CCC2C(C)(C)CCCC2(C)C1 (centres unmarked) [5,5,8a-trimethyldecahydro-2-naphthalenyl acetate], the “Odor Threshold” value ([1]; Table 10, woody note) is reported as 4.19E−04 μg/l air, the Type [2, 9] is reported as “Bottom” and the Volatility ([2]; Table 10, woody note) is reported as 14.41 μg/l air.
With CC(=O)O[C@@H]1CC[C@@H]2C(C)(C)CCC[C@@]2(C)C1 (racemic) the “Odor Threshold” value ([1]; Table 10, woody note) was 4.19E−04 μg/l air, the Type [2, 9] was “Bottom” and the Volatility ([2]; Table 10, woody note) was 14.41 μg/l air.
With CC(C)Cc1ccc2ccccc2n1 [2-ISOBUTYLQUINOLINE] the “Odor Threshold” value [1, 10] was 1.93E−04 μg/l air, the “Odor Value” [1, 10] was 4.53E+04 and the Volatility [2, 10] was 8.73 μg/l air. The Type [2, 11] was “Bottom”.
With C=CC(O)CCCCC (racemic) [(+−)-1-octen-3-ol] the “Odor Threshold (μg/l air)” value [1, 4] was 1.77E−03 μg/l air, the Type [2, 8] was “Top” and the “Volatility (μg/l air)” value [2, 4] was 3030.11 μg/l air.
For CC(=O)/C(C)=C/C1C(C)=CCCC1(C)C (racemic), the “Odor Threshold” value [1, 5] was 1.92E−04 μg/l air, the “Odor Value” [1, 5] was 1.89E+05 and the “Odor Threshold” value ([1]; Table 10, woody note) was 5.03E−05 μg/l air. For the same compound, the Volatility [2, 5] was 36.33 μg/l air, the Type [2, 6] was “Bottom” and the Type [2, 9] was “Top”. For the same compound, the Volatility ([2]; Table 10, woody note) was 106.28 μg/l air.
With “(1S,4S,9S,10R,13R)-5,5,9,13-tetramethyl-14,16-dioxatetracyclo[11.2.1.0~1,10~.0~4,9~]hexadecane (A) + (1R,4S,9S,10R,13S)-5,5,9,13-tetramethyl-14,16-dioxatetracyclo[11.2.1.0~1,10~.0~4,9~]hexadecane (B)” the “Odor Threshold (μg/l air)” value ([1]; Table 4, watery note) was 4.36E−04 μg/l air, the “Odor Value” [1, 12] was 1.55E+04 and the “Volatility (μg/l air)” value ([2]; Table 4, watery note) was 6.77 μg/l air. The Type [2, 13] was “bottom (perfuming compounds having a volatility ranging from 49 to 0.1 μg/l in air are referred to as “bottom notes”)”.
With CC(C)[C@@H]1CC[C@@H](C)CC1=NO the “Odor Threshold (μg/l air)” value [1, 4] was 5.52E−05 μg/l air, the Type [2, 8] was “Bottom” and the “Volatility (μg/l air)” value [2, 4] was 22.29 μg/l air.
With CCCCCCCCCC=O [DECANAL″] the “Odor Threshold (μg/l air)” value ([1]; Table 4, watery note) was 1.92E−03 μg/l air, the “Odor Value” [1, 12] was 2.43E+05 and the “Volatility (μg/l air)” value ([2]; Table 4, watery note) was 466.56 μg/l air. For the same compound, the Type [2, 13] was “TOP (perfuming compounds having a volatility ranging from 70,000 to 100 μg/l in air are referred to as “top notes”)”.
In the case of “10-undecenal (A) + (9E)-9-undecenal (B) + (9Z)-9-undecenal (C)”, the “Odor Threshold (μg/l air)” value ([1]; Table 4, watery note) is reported as 3.77E−05 μg/l air, the “Odor Value” [1, 12] is reported as 3.50E+06 and the “Volatility (μg/l air)” value ([2]; Table 4, watery note) is reported as 131.95 μg/l air. For the same compound, the Type [2, 13] was “TOP (perfuming compounds having a volatility ranging from 70,000 to 100 μg/l in air are referred to as “top notes”)”.
In the case of CCCCCCCC=O [OCTANAL], the “Odor Threshold (μg/l air)” value [1, 4] is reported as 2.77E−04 μg/l air, the Type [2, 8] is reported as “Top” and the “Volatility (μg/l air)” value [2, 4] is reported as 4147.61 μg/l air.
With CCCC(=NO)C(C)C [2-METHYL-3-HEXANONE OXIME] the “Odor Threshold (μg/l air)” value [1, 4] was 4.81E−04 μg/l air, the Type [2, 8] was “Top” and the “Volatility (μg/l air)” value [2, 4] was 687.75 μg/l air.
With CC(=O)/C=C/C1C(C)CCC(C)C1(C)C (racemic) the “Odor Threshold” value ([1]; Table 10, woody note) was 5.14E−04 μg/l air, the Type [2, 9] was “Bottom” and the Volatility ([2]; Table 10, woody note) was 20.50 μg/l air.
With C/C=C/C(=O)[C@@H]1[C@@H](C)C=CCC1(C)C (racemic) the “Odor Threshold” value [1, 10] was 1.70E−05 μg/l air, the “Odor Value” [1, 10] was 8.44E+06 and the “Odor Threshold” value ([1]; Table 9, gourmand note) was 1.70E−05 μg/l air. For the same compound, the Volatility [2, 10] was 143.53 μg/l air, the Type [2, 11] was “Top” and the Volatility ([2]; Table 9, gourmand note) was 143.53 μg/l air. The Type [2, 14] was “Top”.
In the case of CCCCCC#CC(=O)OC [METHYL 2-OCTYNOATE], the “Odor Threshold (μg/l air)” value [1, 4] is reported as 8.31E−04 μg/l air, the Type [2, 8] is reported as “Top” and the “Volatility (μg/l air)” value [2, 4] is reported as 472.01 μg/l air.
For C[C@@H]1CC[C@H]2[C@H](C)C(=O)O[C@@H]2C1, the “Odor Threshold” value ([1]; Table 9, gourmand note) was 3.46E−05 μg/l air, the Volatility ([2]; Table 9, gourmand note) was 74.03 μg/l air and the Type [2, 14] was “Middle”.
With CC(=O)OC(C)c1ccccc1 (racemic) [(+−)-1-PHENYLETHYL ACETATE] the “Odor Threshold (μg/l air)” value ([1]; Table 7, citrus note) was 4.43E−02 μg/l air, the “Odor Value” [1, 3] was 8.75E+03 and the Volatility [2, 5] was 387.96 μg/l air. For the same compound, the Type [2, 6] was “TOP (perfuming compounds having a volatility ranging from 70,000 to 100 μg/l in air are referred to as “top notes”)”, the “Volatility (μg/l air)” value ([2]; Table 7, citrus note) was 387.96 μg/l air and the Type [2, 7] was “Top”.
For CCC(=O)O[C@H]1C[C@@H]2CC[C@@]1(C)C2(C)C, the “Odor Threshold” value ([1]; Table 10, woody note) was 4.55E−02 μg/l air, the Type [2, 9] was “Top” and the Volatility ([2]; Table 10, woody note) was 216.42 μg/l air.
With CC(C)c1cccc(C(C)CC=O)c1 (racemic) [(+−)-3-(3-ISOPROPYL-1-PHENYL)BUTANAL] the “Odor Threshold (μg/l air)” value ([1]; Table 4, watery note) was 7.71E−04 μg/l air, the “Odor Value” [1, 12] was 1.91E+04 and the “Odor Threshold (μg/l air)” value [1, 4] was 7.71E−04 μg/l air. For the same compound, the “Volatility (μg/l air)” value ([2]; Table 4, watery note) was 14.74 μg/l air, the Type [2, 13] was “bottom (perfuming compounds having a volatility ranging from 49 to 0.1 μg/l in air are referred to as “bottom notes”)” and the Type [2, 8] was “Bottom”. For the same compound, the “Volatility (μg/l air)” value [2, 4] was 14.74 μg/l air.
With CC1=CC[C@H](C(C)CC2CCCC2=O)CC1 (some centres unmarked) the “Odor Threshold” value [1, 5] was 1.66E−04 μg/l air, the “Odor Value” [1, 5] was 1.24E+04 and the “Odor Threshold” value [1, 10] was 1.66E−04 μg/l air. The “Odor Value” [1, 10] was 1.24E+04, the “Odor Threshold” value ([1]; Table 9, gourmand note) was 1.66E−04 μg/l air and the Volatility [2, 5] was 2.05 μg/l air. For the same compound, the Type [2, 6] was “Bottom”, the Volatility [2, 10] was 2.05 μg/l air and the Type [2, 11] was “Bottom”. For the same compound, the Volatility ([2]; Table 9, gourmand note) was 2.05 μg/l air and the Type [2, 14] was “Bottom”.
